Measurements taken from patent US9956293B2, “Targeted therapeutics” (Madrigal Pharmaceuticals, Inc., priority 2014, dated 2018).
Each block holds one compound with its values, some of them ahead of it.

Assays:
[1] = tested on: HER2; assay: HER2 degradation in BT-474 cells (Example 3, Western blot / in-cell imaging); format: cell-based, human; details: BT-474 cells; for IC50: Homo sapiens, read-out: HER2 (IC50)
[2] = tested on: HER2; assay: HER2 degradation assay with BT-474 cell line (Example 12, FACS); format: cell-based; details: Homo sapiens
[3] = Tissue distribution of SDC-TRAPs in tumor-bearing mice: plasma, tumor, heart (Examples 14-15); details: mouse, in vivo
[4] = in vivo; details: mouse
[5] = BT-474, SDC-TRAPs of the 41st table

IC50 ([2]; BT-474 cells): 2.35 µM
IC50 [1]: 2.35 µM
Compound: CC(C)c1cc(-c2nnc(O)n2-c2ccc3c(ccn3CCOCCNC(=O)CCCC(=O)Nc3cccc4c3CN(C3CCC(=O)NC3=O)C4=O)c2)c(O)cc1O (stereo not drawn) [SDC-TRAP-0015, N1-(2-(2-(5-(3-(2,4-dihydroxy-5-isopropylphenyl)-5-hydroxy-4H-1,2,4-triazol-4-yl)-1H-indol-1-yl)ethoxy)ethyl)-N5-(2-(2,6-dixopiperidin-3-yl)-1-oxoisoindolin-4-yl)glutaramide]

IC50 ([2]; BT-474 cells): > 10 µM
IC50 [1]: > 5 µM
Compound: CC(C)c1cc(-c2nnc(O)n2-c2ccc3c(ccn3CCC(=O)Nc3cccc4c3CN(C3CCC(=O)NC3=O)C4=O)c2)c(O)cc1O (stereo not drawn) [SDC-TRAP-0017, 3-(5-(3-(2,4-dihydroxy-5-isopropylphenyl)-5-hydroxy-4H-1,2,4-triazol-4-yl)-1H-indol-1-yl)-N-(2-(2,6-dioxopiperidin-3-yl)-1-oxoisoindolin-4-yl)propanamide]

IC50 ([2]; BT-474 cells): 8.21 µM
IC50 [1]: > 5 µM
Compound: CC(C)c1cc(-c2nnc(O)n2-c2ccc3c(ccn3CCN(C)C(=O)CCCC(=O)Nc3cccc4c3CN(C3CCC(=O)NC3=O)C4=O)c2)c(O)cc1O (stereo not drawn) [SDC-TRAP-0018, N1-(2-(5-(3-(2,4-dihydroxy-5-isopropylphenyl)-5-hydroxy-4H-1,2,4-triazol-4-yl)-1H-indol-1-yl)ethyl)-N5-(2-(2,6-dioxopiperidin-3-yl)-1-oxoisoindolin-4-yl)-N1-methylglutaramide]

IC50 [2, 5]: > 5 µM
IC50 [1]: > 5 µM
Compound: CC(C)c1cc(-c2nnc(O)n2-c2ccc3c(ccn3CCOCCNC(=O)c3ccc(CCc4c[nH]c5nc(N)[nH]c(=O)c45)cc3)c2)c(O)cc1O [SDC-TRAP-0020, 4-(2-(2-amino-4-oxo-4,7-dihydro-3H-pyrrolo[2,3-d]pyrimidin-5-yl)ethyl)-N-(2-(2-(5-(3-(2,4-dihydroxy-5-isopropylphenyl)-5-hydroxy-4H-1,2,4-triazol-4-yl)-1H-indol-1-yl)ethoxy)ethyl)benzamide]

IC50 ([2]; BT-474 cells): > 5 µM
IC50 [1]: > 5 µM
Compound: CC(C)c1cc(-c2nnc(O)n2-c2ccc3c(ccn3CCN(C)C(=O)NCC(=O)Nc3cccc4c3CN(C3CCC(=O)NC3=O)C4=O)c2)c(O)cc1O (stereo not drawn) [SDC-TRAP-0021, 2-(3-(2-(5-(3-(2,4-dihydroxy-5-isopropylphenyl)-5-hydroxy-4H-1,2,4-triazol-4-yl)-1H-indol-1-yl)ethyl)-3-methylureido)-N-(2-(2,6-dioxopiperidin-3-yl)-1-oxoisoindolin-4-yl)acetamide]

concentration at 1 h ([4]; Plasma Conc.): 65200 nM
concentration at 6 h ([4]; Plasma Conc.): 595 nM
concentration at 24 h ([4]; Plasma Conc.): 11.1 nM
concentration at 48 h ([4]; Plasma Conc.): 31.5 nM
Kp at 1 h ([4]; Tumor/Plasma Ratio): 0.21
Kp at 6 h ([4]; Tumor/Plasma Ratio): 10.2
Kp at 24 h ([4]; Tumor/Plasma Ratio): 251
Kp at 48 h ([4]; Tumor/Plasma Ratio): 46.5
Kp at […] ([4]; Tumor/Plasma Ratio): 0.03
IC50 ([2]; BT-474 cells): 0.967 µM
Compound: CC(C)c1cc(-c2nnc(O)n2-c2ccc(CC3CCN(CC(=O)Nc4cccc5c4CN(C4CCC(=O)NC4=O)C5=O)CC3)cc2)c(O)cc1O (stereo not drawn) [SDC-TRAP-0116, 2-(4-(4-(3-(2,4-dihydroxy-5-isopropylphenyl)-5-hydroxy-4H-1,2,4-triazol-4-yl)benzyl)piperidin-1-yl)-N-(2-(2,6-dioxopiperidin-3-yl)-1-oxoisoindolin-4-yl)acetamide]

Continued, compound first:

Compound: C=CCNC1=C2C[C@@H](C)C[C@H](OC)[C@H](O)[C@@H](C)/C=C(\C)[C@H](OC(N)=O)[C@@H](OC)/C=C\C=C(/C)C(=O)NC(=CC1=O)C2=O [17-AAG, reference compound]
degradation of HER2 ([1]; overnight, 17-AAG at 0.5 μM): partial degradation of HER2

Compound: CC(C)c1cc(-c2nnc(O)n2-c2ccc3c(ccn3CCN(C)C(=O)c3ccc(CCc4c[nH]c5nc(N)[nH]c(=O)c45)cc3)c2)c(O)cc1O [SDC-TRAP-0019, 4-(2-(2-amino-4-oxo-4,7-dihydro-3H-pyrrolo[2,3-d]pyrimidin-5-yl)ethyl)-N-(2-(5-(3-(2,4-dihydroxy-5-isopropylphenyl)-5-hydroxy-4H-1,2,4-triazol-4-yl)-1H-indol-1-yl)ethyl)-N-methylbenzamide]
IC50 [2, 5]: 4.42 µM
IC50 [1]: 4.42 µM

Compound: CCc1c2c(nc3ccc(OCC(=O)NCCn4ccc5cc(-n6c(O)nnc6-c6cc(C(C)C)c(O)cc6O)ccc54)cc13)-c1cc3c(c(=O)n1C2)COC(=O)C3(O)CC (stereo not drawn) [SDC-TRAP-0023, 2-((4,11-diethyl-4-hydroxy-3,14-dioxo-3,4,12,14-tetrahydro-1H-pyrano[3′,4′:6,7]indolizino[1,2b]quinolin-9-yl)oxy)-N-(2-(5-(3-(2,4-dihydroxy-5-isopropylphenyl)-5-hydroxy-4H-1,2,4-triazol-4-yl)-1H-indol-1-yl)ethyl)acetamide]
IC50 ([2]; BT-474, SDC-TRAPs of the 43rd table): 4.3 µM
IC50 [1]: 4.3 µM

Compound: CC(C)c1cc(-c2nnc(O)n2-c2ccc3c(ccn3CCOC(=O)Nc3nc(=O)[nH]cc3F)c2)c(O)cc1O [SDC-TRAP-0025, 2-(5-(3-(2,4-dihydroxy-5-isopropylphenyl)-5-hydroxy-4H-1,2,4-triazol-4-yl)-1H-indol-1-yl)ethyl (5-fluoro-2-oxo-1,2-dihydropyrimidin-4-yl) carbamate]
IC50 ([2]; BT-474, SDC-TRAPs of the 52nd table): 0.403 µM
IC50 [1]: 0.395 µM

Compound: CCc1c2c(nc3ccc(OC(=O)N4CCN(Cc5ccc(-n6c(O)nnc6-c6cc(C(C)C)c(O)cc6O)cc5)CC4)cc13)-c1cc3c(c(=O)n1C2)COC(=O)C3(O)CC (stereo not drawn) [SDC-TRAP-0046, 4,11-diethyl-4-hydroxy-3,14-dioxo-3,4,12,14-tetrahydro-1H-pyrano[3′,4′:6,7]indolizino[1,2-b]quinolin-9-yl 4-(4-(3-(2,4-dihydroxy-5-isopropylphenyl)-5-hydroxy-4H-1,2,4-triazol-4-yl)benzyl)piperazine-1-carboxylate]
Kp at 6 h [3]: 0.844
Kp at 12 h [3]: 2.2
Kp at 24 h [3]: 40.3
Kp at […] [3]: 0.0193
concentration at 6 h [3]: 5880 nM
concentration at 12 h [3]: 2370 nM
concentration at 24 h [3]: 54.2 nM

Compound: CCc1c2c(nc3ccc(O)cc13)-c1cc3c(c(=O)n1C2)COC(=O)C3(CC)OC(=O)CN1CCN(c2ccc(-n3c(O)nnc3-c3cc(C(C)C)c(O)cc3O)cc2)CC1 (stereo not drawn) [SDC-TRAP-0056, 4,11-diethyl-9-hydroxy-3,14-dioxo-3,4,12,14-tetrahydro-1H-pyrano[3′,4′:6,7]indolizino[1,2-b]quinolin-4-yl 2-(4-(4-(3-(2,4-dihydroxy-5-isopropylphenyl)-5-hydroxy-4H-1,2,4-triazol-4-yl)phenyl)piperazin-1-yl)acetate]
Kp ([4]; Tumor/Plasma Ratio, Tissue Distribution Data for SDC-TRAP-0056, time 6 h): 1.28
Kp ([4]; Tumor/Plasma Ratio, Tissue Distribution Data for SDC-TRAP-0056, time 12 h): 1.95
Kp ([4]; Tumor/Plasma Ratio, Tissue Distribution Data for SDC-TRAP-0056, time […]): 0.00525

Compound: COc1ccc(-c2cnoc2-c2cc(OC)c(OC)c(OC)c2)cc1OC(=O)N1CCN(Cc2ccc(-n3c(O)nnc3-c3cc(C(C)C)c(O)cc3O)cc2)CC1 [SDC-TRAP-0098, 2-Methoxy-5-(5-(3,4,5-trimethoxyphenyl)isoxazol-4-yl)phenyl-4-(4-(3-(2,4-dihydroxy-5-isopropylphenyl)-5-hydroxy-4H-1,2,4-triazol-4-yl)benzyl)piperazine-1-carboxylate]
Kp at 1 h [3]: 0.62
Kp at 6 h [3]: 8.22
Kp at 24 h [3]: 300
Kp at […] [3]: 0.01

Compound: CCNC(=O)c1nnc(-c2cc(C(C)C)c(O)cc2O)n1-c1ccc(Oc2ccc(C(=O)N3CCC(C(=O)OC4(CC)C(=O)OCc5c4cc4n(c5=O)Cc5c-4nc4ccc(O)cc4c5CC)CC3)cc2)cc1 (stereo not drawn) [SDC-TRAP-0154, 4,11-Diethyl-9-hydroxy-3,14-dioxo-3,4,12,14-tetrahydro-1H-pyrano[3′,4′:6,7]indolizino[1,2-b]quinolin-4-yl 1-(4-(4-(3-(2,4-dihydroxy-5-isopropylphenyl)-5-(ethylcarbamoyl)-4H-1,2,4-triazol-4-yl)phenoxy)benzoyl)piperidine-4-carboxylate]
Kp ([4]; Tumor/Plasma Ratio, Tissue Distribution Data for SDC-TRAP-0154, time 1 h): 0.06
Kp ([4]; Tumor/Plasma Ratio, Tissue Distribution Data for SDC-TRAP-0154, time 6 h): 1.86
Kp ([4]; Tumor/Plasma Ratio, Tissue Distribution Data for SDC-TRAP-0154, time 24 h): 11.9
Kp ([4]; Tumor/Plasma Ratio, Tissue Distribution Data for SDC-TRAP-0154, time 48 h): 86
Kp ([4]; Tumor/Plasma Ratio, Tissue Distribution Data for SDC-TRAP-0154, time […]): 0.01

Compound: CC(C)c1cc(-c2nnc(O)n2-c2ccc(CN3CCN(C(=O)Oc4ccc(COC(=O)Nc5cccc6c5CN(C5CCC(=O)NC5=O)C6=O)cc4)CC3)c(F)c2)c(O)cc1O (stereo not drawn) [SDC-TRAP-0171, 4-((((2-(2,6-dioxopiperidin-3-yl)-1-oxoisoindolin-4-yl)carbamoyl)oxy)methyl)phenyl-4-(4-(3-(2,4-dihydroxy-5-isopropylphenyl)-5-hydroxy-4H-1,2,4-triazol-4-yl)-2-fluorobenzyl)piperazine-1-carboxylate]
Kp at 1 h [3]: 0.249
Kp at 6 h [3]: 3.1
Kp at 24 h [3]: 407
Kp at […] [3]: 0.0164
concentration at 1 h [3]: 32200 nM
concentration at 6 h [3]: 1210 nM
concentration at 24 h [3]: 1.62 nM

Compound: CCNC(=O)c1nnc(-c2cc(C(C)C)c(O)cc2O)n1-c1ccc(CN2CCC(C(=O)N3CCN(c4cc(C)c(OC(=O)Nc5cccc6c5CN(C5CCC(=O)NC5=O)C6=O)c(C)c4)CC3)CC2)cc1 (stereo not drawn) [SDC-TRAP-0195, 4-(4-(1-(4-(3-(2,4-dihydroxy-5-isopropylphenyl)-5-(ethylcarbamoyl)-4H-1,2,4-triazol-4-yl)benzyl)piperidine-4-carbonyl)piperazin-1-yl)-2,6-dimethylphenyl (2-(2,6-dioxopiperidin-3-yl)-1-oxoisoindolin-4-yl)carbamate]
Kp at 1 h [3]: 0.109
Kp at 6 h [3]: 2.36
Kp at 24 h [3]: 5.5
Kp at […] [3]: 0.014
concentration at 1 h [3]: 211000 nM
concentration at 6 h [3]: 7230 nM
concentration at 24 h [3]: 2030 nM
